Test results from PubChem BioAssay AID248 (DTP/NCI, 2004).
Values joined by “and” are separate entries in the source; they are usually repeats but may differ in a detail not shown here. Identical values can stand only once. Inconclusive results and toxic doses are left out.

Test system: L1210 leukemia ip in BDF1 mice, survival T/C
Experiment: NCI In Vivo Anticancer Drug Screen. Data for tumor model L1210 Leukemia (intraperitoneal) in B6D2F1 (BDF1) mice
Conditions: higher = longer survival
In short: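 Transplanted-tumor mice were given test agent; controls received vehicle only. Survival readings from the two groups were divided (treated over control).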

[1] = endpoint: mean survival time, dose: 100.0 mg/kg/injection, schedule: Q01DX001 (ip), vehicle: saline
[2] = endpoint: mean survival time, dose: 200.0 mg/kg/injection, schedule: Q01DX001 (ip), vehicle: saline
[3] = endpoint: mean survival time, dose: 400.0 mg/kg/injection, schedule: Q01DX001 (ip), vehicle: carboxymethylcellulose (CMC)

## CCN(CC)CCNc1ccc(CO)c2sc3ccccc3c(=O)c12
endpoint: mean survival time, dose: 8.0 mg/kg/injection, schedule: Q01DX009 (ip), vehicle: clinical formulation
  T/C: 108 % of control
endpoint: mean survival time, dose: 8.0 mg/kg/injection, schedule: Q01DX009 (ip), vehicle: water
  T/C: 106 % of control
endpoint: mean survival time, dose: 16.0 mg/kg/injection, schedule: Q01DX009 (ip), vehicle: clinical formulation
  T/C: 112 % of control
endpoint: mean survival time, dose: 16.0 mg/kg/injection, schedule: Q01DX009 (ip), vehicle: water
  T/C: 92 % of control
endpoint: mean survival time, dose: 18.75 mg/kg/injection, schedule: Q01DX009 (ip), vehicle: saline
  T/C: 118 % of control
endpoint: mean survival time, dose: 22.0 mg/kg/injection, schedule: Q01DX009 (ip), vehicle: saline
  T/C: 115 % of control
endpoint: mean survival time, dose: 32.0 mg/kg/injection, schedule: Q01DX009 (ip), vehicle: clinical formulation
  T/C: 121 % of control
endpoint: mean survival time, dose: 32.0 mg/kg/injection, schedule: Q01DX009 (ip), vehicle: water
  T/C: 117 % of control
endpoint: mean survival time, dose: 35.0 mg/kg/injection, schedule: Q01DX009 (ip), vehicle: saline
  T/C: 123 % of control
endpoint: mean survival time, dose: 50.0 mg/kg/injection, schedule: Q04DX003 (ip), vehicle: saline
  T/C: 90 % of control
endpoint: mean survival time, dose: 64.0 mg/kg/injection, schedule: Q01DX009 (ip), vehicle: clinical formulation
  T/C: 164 % of control
endpoint: mean survival time, dose: 64.0 mg/kg/injection, schedule: Q01DX009 (ip), vehicle: water
  T/C: 157 % of control
endpoint: mean survival time, dose: 81.0 mg/kg/injection, schedule: Q01DX009 (ip), vehicle: Klucel (hydroxypropylcellulose) (HPC)
  T/C: 120 % of control
[1]
  T/C: 102 % of control
endpoint: mean survival time, dose: 100.0 mg/kg/injection, schedule: Q04DX003 (ip), vehicle: saline
  T/C: 106 % of control
endpoint: mean survival time, dose: 112.0 mg/kg/injection, schedule: Q01DX009 (ip), vehicle: saline
  T/C: 98 % of control and 105 % of control
endpoint: mean survival time, dose: 122.0 mg/kg/injection, schedule: Q01DX009 (ip), vehicle: Klucel (hydroxypropylcellulose) (HPC)
  T/C: 112 % of control
endpoint: mean survival time, dose: 128.0 mg/kg/injection, schedule: Q01DX009 (ip), vehicle: clinical formulation
  T/C: 91 % of control
endpoint: mean survival time, dose: 128.0 mg/kg/injection, schedule: Q01DX009 (ip), vehicle: water
  T/C: 110 % of control
endpoint: mean survival time, dose: 150.0 mg/kg/injection, schedule: Q01DX009 (ip), vehicle: saline
  T/C: 93 % of control
[2]
  T/C: 110 % of control
endpoint: mean survival time, dose: 200.0 mg/kg/injection, schedule: Q01DX009 (ip), vehicle: Klucel (hydroxypropylcellulose) (HPC)
  T/C: 120 % of control
endpoint: mean survival time, dose: 200.0 mg/kg/injection, schedule: Q04DX003 (ip), vehicle: saline
  T/C: 173 % of control
endpoint: mean survival time, dose: 264.0 mg/kg/injection, schedule: Q01DX001 (ip), vehicle: carboxymethylcellulose (CMC)
  T/C: 112 % of control
endpoint: mean survival time, dose: 264.0 mg/kg/injection, schedule: Q01DX009 (ip), vehicle: carboxymethylcellulose (CMC)
  T/C: 124 % of control
endpoint: mean survival time, dose: 300.0 mg/kg/injection, schedule: Q04DX003 (ip), vehicle: saline
  T/C: 184 % of control
[3]
  T/C: 157 % of control
endpoint: median survival time, dose: 4.0 mg/kg/injection, schedule: Q01DX009 (ip), vehicle: saline
  T/C: 90 % of control
endpoint: median survival time, dose: 4.0 mg/kg/injection, schedule: Q03HX016 (ip), vehicle: saline
  T/C: 100 % of control
endpoint: median survival time, dose: 4.0 mg/kg/injection, schedule: Q03HX024 (ip), vehicle: saline
  T/C: 100 % of control
endpoint: median survival time, dose: 8.0 mg/kg/injection, schedule: Q01DX009 (ip), vehicle: saline
  T/C: 100 % of control
endpoint: median survival time, dose: 8.0 mg/kg/injection, schedule: Q03HX008 (ip), vehicle: saline
  T/C: 100 % of control
endpoint: median survival time, dose: 8.0 mg/kg/injection, schedule: Q03HX016 (ip), vehicle: saline
  T/C: 100 % of control
endpoint: median survival time, dose: 8.0 mg/kg/injection, schedule: Q03HX024 (ip), vehicle: saline
  T/C: 105 % of control
endpoint: median survival time, dose: 16.0 mg/kg/injection, schedule: Q01DX009 (ip), vehicle: saline
  T/C: 110 % of control
endpoint: median survival time, dose: 16.0 mg/kg/injection, schedule: Q01DX009 (sc), vehicle: saline
  T/C: 100 % of control
endpoint: median survival time, dose: 16.0 mg/kg/injection, schedule: Q03HX008 (ip), vehicle: saline
  T/C: 110 % of control
endpoint: median survival time, dose: 16.0 mg/kg/injection, schedule: Q03HX016 (ip), vehicle: saline
  T/C: 100 % of control
endpoint: median survival time, dose: 32.0 mg/kg/injection, schedule: Q01DX001 (ip), vehicle: saline
  T/C: 100 % of control
endpoint: median survival time, dose: 32.0 mg/kg/injection, schedule: Q01DX009 (oral), vehicle: saline
  T/C: 100 % of control and 120 % of control
endpoint: median survival time, dose: 32.0 mg/kg/injection, schedule: Q01DX009 (sc), vehicle: saline
  T/C: 115 % of control
endpoint: median survival time, dose: 32.0 mg/kg/injection, schedule: Q04DX003 (ip), vehicle: saline
  T/C: 100 % of control
endpoint: median survival time, dose: 32.0 mg/kg/injection, schedule: Q08DX002 (ip), vehicle: saline
  T/C: 100 % of control
endpoint: median survival time, dose: 64.0 mg/kg/injection, schedule: Q01DX001 (ip), vehicle: saline
  T/C: 100 % of control
endpoint: median survival time, dose: 64.0 mg/kg/injection, schedule: Q01DX001 (sc), vehicle: saline
  T/C: 100 % of control
endpoint: median survival time, dose: 64.0 mg/kg/injection, schedule: Q01DX009 (oral), vehicle: saline
  T/C: 115 % of control
endpoint: median survival time, dose: 64.0 mg/kg/injection, schedule: Q04DX003 (ip), vehicle: saline
  T/C: 110 % of control
endpoint: median survival time, dose: 64.0 mg/kg/injection, schedule: Q08DX002 (ip), vehicle: saline
  T/C: 100 % of control
endpoint: median survival time, dose: 128.0 mg/kg/injection, schedule: Q01DX001 (ip), vehicle: saline
  T/C: 110 % of control
endpoint: median survival time, dose: 128.0 mg/kg/injection, schedule: Q01DX001 (sc), vehicle: saline
  T/C: 105 % of control
endpoint: median survival time, dose: 128.0 mg/kg/injection, schedule: Q01DX009 (oral), vehicle: saline
  T/C: 120 % of control
endpoint: median survival time, dose: 128.0 mg/kg/injection, schedule: Q01DX009 (sc), vehicle: saline
  T/C: 95 % of control
endpoint: median survival time, dose: 256.0 mg/kg/injection, schedule: Q01DX001 (oral), vehicle: saline
  T/C: 110 % of control and 120 % of control
endpoint: median survival time, dose: 256.0 mg/kg/injection, schedule: Q01DX009 (oral), vehicle: saline
  T/C: 100 % of control
endpoint: median survival time, dose: 512.0 mg/kg/injection, schedule: Q01DX001 (oral), vehicle: saline
  T/C: 110 % of control and 120 % of control

## COC(=O)C(Br)C(Br)c1cc(OC)c(OC)c(OC)c1 (stereo not given)
endpoint: mean survival time, dose: 100.0 mg/kg/injection, schedule: Q01DX001 (ip), vehicle: carboxymethylcellulose (CMC)
  T/C: 89 % of control
endpoint: mean survival time, dose: 200.0 mg/kg/injection, schedule: Q01DX001 (ip), vehicle: carboxymethylcellulose (CMC)
  T/C: 93 % of control
[3]
  T/C: 103 % of control

## CC(C)Cc1ccc(C(C)C(=O)O)cc1 (stereo not given)
[1]
  T/C: 100 % of control
[2]
  T/C: 92 % of control
